Assay [1] relates to mouse peritoneal macrophages. Kind of assay: Uptake of LDL into mouse peritoneal macrophages induced by group X sPLA2 (Oil Red O stain). The class given is cell-based. Particulars: agent 10 μmol/L; 0.2 mg/ml LDL, 50 nmol/L group X sPLA2, 48 hours. Here is the method:
C57BL/6J mice (male, 8 weeks) were injected peritoneally with 2 ml of a 4% thioglycollate solution, and, 4 days later, the cells from the peritoneal fluids were harvested. The cells were plated on a chamber slide, and incubated for 2 hours in the presence of the serum-free medium (BIO […]: X-VIVO 15). Then, non-adherent cells were removed by the washing procedure to prepare peritoneal macrophages. The cells were added with 0.2 mg/ml LDL (Sigma) and 50 nmol/L group X PLA2, and incubated in the serum-free medium for 48 hours. Uptake of LDL into macrophages were confirmed by immobilizing the cells with 4% formaldehyde for 20 minutes, and then staining the lipids with an Oil Red O stain solution.

In assay [2] the target is T1, human group X sPLA2 (Homo sapiens, UniProt O15496).
T1 sequence (O15496 43-165): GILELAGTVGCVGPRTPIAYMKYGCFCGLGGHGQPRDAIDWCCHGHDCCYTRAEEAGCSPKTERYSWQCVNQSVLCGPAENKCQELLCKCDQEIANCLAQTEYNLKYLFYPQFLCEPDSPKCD
Kind of assay: Fatty acid release from isolated human lipoproteins induced by group X sPLA2. In kind it is biochemical. Particulars: agent 10 μmol/L, added with sPLA2; arachidonic acid from LDL (FIG. 2). Here is the method:
LDL and HDL were isolated from human plasma by ultracentrifugation (Havel, et al., J. Clin. Invest. 34, 1345-1353 (1955)). Human group IB, IIA and X sPLA2s (0.5 nmol/L to 500 nmol/L) were reacted with LDL and HDL (0.35-1 mg/ml) at 37° C. in a solution containing 12.5 mmol/L Tris-HCL buffer (pH 8.0), 125 mg/L bovine serum albumin, and 1 mmol/L calcium chloride. The fatty acids released from the lipoproteins were extracted according to the method of Dole (Dole, et al., J. Biol. Chem. 235, 2595-2599 (1960)), and were labeled with 9-anthryldiazomethane by the known method (Hanasaki, et al., J. Biol. Chem. 274, 34203-34211 (1999)). Then, the released fatty acids were determined by detecting fluorescence of the labeled products (fatty acids) eluted from high performance liquid chromatography (HPLC) on reverse-phase column (LichroCART 125-4 Superspher 100 RP-18 columnmol/Merck). In order to examine does-dependent release of fatty acids induced by each sPLA2, the lipoprotein was reacted with 0.5, 5, 50, and 500 nmol/L group X sPLA2, and 50 and 500 nmol/L group IB and IIA sPLA2 for 60 minutes. Further, in order to examine time-dependent fatty acid release induced by sPLA2, each 50 nmol/L sPLA2 was used, and the change in the release with time course was traced during the period time of 4 hours after the sPLA2 addition. In the experiment for determining the inhibitory activity of a sPLA2 inhibitor (indoxam; Yokota, et al., Biochim. Biophys. Acta 1438, 213-222 (1999)), a cyclooxygenase (COX) inhibitor (indomethacin) or a 5-lipoxygenase (5-LOX) inhibitor (AA-861; 2,3,5-trimethyl-6-(12-hydroxy-5,10-dodecadiynyl)-1,4-benzoquinone (Yoshimoto, et al., Biochem. Biophys. Acta. 713, 470-473 (1982)), those agents were added to the reaction giving a final concentration of 10 μmol/L, virtually simultaneously with the addition of sPLA2.

Assay [3] concerns the target T2, human group V sPLA2 (Homo sapiens, UniProt P39877).
T2 construct: made in house; host or cells: CHO cells, stably transfected (pSVL vector); culture supernatant used
T2 sequence (P39877 21-138): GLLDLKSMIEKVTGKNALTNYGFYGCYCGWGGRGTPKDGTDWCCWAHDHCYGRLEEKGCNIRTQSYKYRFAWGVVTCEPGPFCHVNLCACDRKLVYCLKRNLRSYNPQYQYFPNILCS
Kind of assay: Fatty acid (linoleic acid) release from isolated human lipoproteins induced by group V sPLA2. In kind it is biochemical. Particulars: agent 10 μmol/L; from LDL (FIG. 8). Here is the method: LDL and HDL were isolated from human plasma by ultracentrifugation (Havel, et al., J. Clin. Invest. 34, 1345-1353 (1955)). […] Biol. Chem. 235, 2595-2599 (1960)). The fatty acids were labeled with 9-anthryldiazomethane by the known method ([…], et al., J. Biol. Chem. 274, 34203-34211 (1999)), and then were determined by detecting fluorescence of the labeled products (fatty acids) eluted from high performance liquid chromatography (HPLC) on reverse-phase column (LichroCART 125-4 Superspher 100 RP-18 column, Merck).

The target of assay [4] is T1, human group X sPLA2. The assay is described as follows: Negative charge of isolated human lipoproteins (agarose gel electrophoresis) after group X sPLA2. In kind it is biochemical. The note with it: agent 10 μmol/L; LDL and HDL, 50 nmol/L sPLA2. Here is the method:
LDL and HDL were isolated from human plasma by ultracentrifugation (Havel, et al., J. Clin. Invest. 34, 1345-1353 (1955)). Human group IB, IIA and X sPLA2s (50 nmol/L) and CuSO4 (20 μmol/L) were reacted with LDL and HDL (1 mg/ml) at 37° C. for 3, 6, and 24 hours in a solution containing 12.5 mmol/L Tris-HCL buffer (pH 8.0), 125 mg/L bovine serum albumin, and 1 mmol/L calcium chloride. Then, a 1 μg sample of LDL and a 2 μg sample of HDL were electrophoresed on agarose gel (Helena Laboratories, TITAN GEL Lipoprotein; 90V, 25 minutes). After the electrophoresis, the gel was dried at 50 to 60° C. for about 1 hour, stained with 6 ml of a stain solution (Helena Laboratories, Fat Red 7B agarose solution) for about 3 minutes, and then decolorized with 25 ml of a decolorizing solution (70% methanol). In the experiment for determining the activity of a sPLA2 inhibitor (indoxam), a COX inhibitor (indomethacin) or a 5-LOX inhibitor (AA-861), those agents were added to the reaction giving a final concentration of 10 μmol/L, virtually simultaneously with the addition of sPLA2.

The target in assay [5] is T2, human group V sPLA2. The assay is described as follows: Degeneration (negative charge, agarose gel electrophoresis) of isolated human lipoproteins by group V sPLA2. The class given is biochemical. The note with it: agent 10 μmol/L; LDL and HDL, 50 nmol/L sPLA2. Here is the method:
LDL and HDL were isolated from human plasma by ultracentrifugation (Havel, et al., J. Clin. Invest. 34, 1345-1353 (1955)). Human group IIA and V sPLA2s (50 nmol/L) were reacted with LDL and HDL (1 mg/ml) at 37° C. for 3, 6, and 24 hours in a solution containing 12.5 mmol/L Tris-HCL buffer (pH 8.0), 125 mg/L bovine serum albumin, and 1 mmol/L calcium chloride, and then 1 μg of the LDL and 2 μg of the HDL were spotted on an agarose gel (Helena Laboratories, TITAN GEL Lipoprotein), followed by being electrophoresed at 90V for 25 minutes. After the electrophoresis, the gels were dried at 50 to 60° C. for about one hour, stained with 6 ml of a stain solution (Helena Laboratories, Fat Red 7B agarose solution) for about three minutes, and then decolorized with 25 ml of a decolorizing solution (70% methanol).

The structures appear in SMILES notation.

Turning to `COc1ccc2c(c1)c(CC(=O)O)c(C)n2C(=O)c1ccc(Cl)cc1` [indomethacin], the “Effect on group X sPLA2-induced uptake of LDL into the cells” value in assay [1] is “affected neither”. Also, in assay [2], the “Effect on fatty acid release induced by group X sPLA2” value is “affected neither”. The “Effect on linoleic acid release induced by group V sPLA2” value in assay [3] was “not affected”. The “Effect on lipoprotein degeneration (increase in negative charge) induced by group X sPLA2” value in assay [4] is “affected neither”. Moreover, the “Effect on lipoprotein degeneration induced by group V sPLA2” value in assay [5] was “not affected”.

(Values after patent US20040248898A1, “Remedies for arteriosclerosis” (priority 2001, published 2004).)
